The text below walks through data of ChEMBL document CHEMBL3627618, “Rethinking the old antiviral drug moroxydine: Discovery of novel analogues as anti-hepatitis C virus (HCV) agents” (Bioorg Med Chem Lett, 2015).

As a reminder, the inhibition is how much of the control response was suppressed. Usually CC50 stands for the concentration at which the toxic effect on the cells reaches its halfway point. A word on the EC50: it is the concentration that produces a half-maximal response.

A short description of data set [1]: Cytotoxicity against human HuH7-J20 cells expressing secreted alkaline phosphatase reporter gene assessed as cell viability at 10 uM incubated for 1 hr by WST-1 assay. The class given is cell-based. The conditions noted are these: huh-7, 1 h.
For data set [2], the system named is Hepatitis C virus. The data set can be described thus: Antiviral activity against HCV pseudotyped particles infected in human HuH7 cells assessed as reduction of viral entry preincubated with cells for 1 hr followed by viral inoculation for 3 hrs by luciferase reporter gene assay. The note with it: Hepacivirus hominis; Huh-7. It is filed as functional, organism-based. (In a reporter assay the amount or activity of a reporter protein is the signal.)

In data set [3] the test system is Hepatitis C virus. The data set can be described thus: Antiviral activity against HCV JFH1 infected in human HuH7-J20 cells assessed as inhibition of viral life cycle by measuring secreted alkaline phosphatase level […] preincubated with cells for 1 hr followed by viral inoculation for 3 hrs measured at 72 hrs relative to control. It is filed as functional. The conditions noted are these: Hepacivirus hominis; genotype 2a JFH-1; Huh-7.

The nature of data set [4]: Selectivity index, ratio of CC50 for human HuH7-J20 cells expressing secreted alkaline phosphatase reporter gene preincubated for 1 hr followed by fresh drug administration every 24 hrs for 48 hrs to EC50 for HCV JFH1 infected in human HuH7-J20 cells preincubated with cells for 1 hr followed by viral inoculation for 3 hrs and fresh drug administration every 24 hrs at 1/10th of initial concentration for 48 hrs measured at 72 hrs. On the set-up: species or system Huh-7.

Data set [5] can be described thus: Selectivity index, ratio of CC50 for human HuH7-J20 cells expressing secreted alkaline phosphatase reporter gene incubated for 1 hr to EC50 for HCV JFH1 infected in human HuH7-J20 cells preincubated with cells for 1 hr followed by viral inoculation for 3 hrs measured at 72 hrs. On the set-up: species or system Huh-7.
Data set [6] in a line: Cytotoxicity against human HuH7-J20 cells expressing secreted alkaline phosphatase reporter gene assessed as cell viability incubated for 1 hr by WST-1 assay. The class given is cell-based, Huh-7.
Data set [7] has as its system Hepatitis C virus. The data set can be described thus: Antiviral activity against HCV JFH1 infected in human HuH7-J20 cells assessed as inhibition of viral life cycle by measuring secreted alkaline phosphatase level preincubated with cells for 1 hr followed by viral inoculation for 3 hrs and fresh drug administration every 24 hrs at 1/10th of initial concentration for 48 hrs measured at 72 hrs. It is filed as functional, cell-based, Hepacivirus hominis. The conditions noted are these: genotype 2a JFH-1, Huh-7.

Data set [8] can be described thus: Cytotoxicity against human HuH7 assessed as cell viability after 24 hrs by WST-1 assay. The note with it: huh-7, 24 h. The class given is cell-based. On the technique in general: Formazan colour is commonly taken as a measure of viable cells.
Data set [9] relates to Hepatitis C virus. As to the kind of experiment: Antiviral activity against HCV JFH1 infected in human HuH7-J20 cells assessed as inhibition of viral life cycle by measuring secreted alkaline phosphatase level preincubated with cells for 1 hr followed by viral inoculation for 3 hrs measured at 72 hrs. The conditions noted are these: for EC50: genotype 2a JFH-1, Huh-7. It is filed as functional, cell-based, Hepacivirus hominis.

Data set [10] is described as follows: Cytotoxicity against human HuH7-J20 cells expressing secreted alkaline phosphatase reporter gene assessed as cell viability preincubated for 1 hr followed by fresh drug administration every 24 hrs at 1/10th of initial concentration for 48 hrs by WST-1 assay. The class given is cell-based, Huh-7.
Data set [11] relates to Hepatitis C virus. As to the kind of experiment: Ratio of EC50 for HCV JFH1 infected in human HuH7-J20 cells preincubated with cells for 1 hr followed by viral inoculation for 3 hrs measured at 72 hrs to EC50 for HCV JFH1 infected in human HuH7-J20 cells preincubated with cells for 1 hr followed by viral inoculation for 3 hrs and fresh drug administration every 24 hrs at 1/10th of initial concentration for 48 hrs measured at 72 hrs. It is filed as functional, Hepacivirus hominis, genotype 2a JFH-1, Huh-7.

Data set [12] has as its system Hepatitis C virus. As to the kind of experiment: Antiviral activity against HCV JFH1 sub genomic replicon infected in human HuH7 cells assessed as inhibition of viral RNA replication at 10 uM measured after 24 hrs by luciferase reporter gene assay. The class given is functional, Hepacivirus hominis. The note with it: genotype 2a JFH-1, Huh-7, 24 h. A general note: Replicon systems follow genome replication, usually without infectious particles.

Activity calls are given as the source filed them. The rule behind the calls is not given here.

Regarding `CC(C)(C)OC(=O)/N=C(\NCc1ccccc1)NC(=O)N1CCN(c2ccccc2)CC1`, the Activity entry in data set [1] was “Non-toxic”.
On to `C=CCNC(=O)NC(=N)NCc1ccccc1.Cl`, for which, in [1], the Activity entry is listed as “Non-toxic”. In addition, the result with Hepatitis C virus [2] was inactive.
On to `Cl.N=C(NCc1ccccc1)NC(=O)N1CCN(c2ccccc2)CC1`, for which the Activity entry in [1] is given as “Non-toxic”. For the same compound, in the data set on Hepatitis C virus [2], the result was inactive.
`Cl.N=C(NC(=O)N1CCN(c2ccc([N+](=O)[O-])cc2)CC1)Nc1ccc(Cl)cc1`: in [1], the Activity result is “Non-toxic”. In addition, the outcome in the data set with Hepatitis C virus [2] was inactive.
As to `N=C(N)NC(=N)Nc1ccccc1`, the inhibition result with Hepatitis C virus [3] is “inactive”.
Take `Cl.N=C(NCc1ccccc1)NC(=O)N1CCOCC1`: the Activity entry in [1] is recorded as “Non-toxic”. In addition, the outcome in the data set with Hepatitis C virus [2] was inactive.
As for `Cl.N=C(NC(=O)N1CCN(c2ccc(C34CC5CC(CC(C5)C3)C4)cc2)CC1)Nc1ccc(Cl)cc1`, the “Ratio CC50/EC50” value was 5.54 in data set [4] and 7.45 in data set [5]. Also, in [6], the CC50 at 1 h turned out to be 73 µM. Also, the EC50 with Hepatitis C virus [7] came to 13.9 µM; with Hepatitis C virus [9] it was 9.8 µM. For the same compound, the Activity result in data set [8] was “Non-toxic”. In addition, in [10], the CC50 at 48 h was found to be 77 µM. Moreover, the outcome with Hepatitis C virus [2] was inactive.
On to `NC(=O)c1ncn([C@@H]2O[C@H](CO)[C@@H](O)[C@H]2O)n1` [RIBAVIRIN], for which the figures for the “Ratio CC50/EC50” value in data set [4] and in data set [5] were 0.91 and >1, respectively. Further, the CC50 at 1 h in [6] is > 30 µM. The EC50 in the data set with Hepatitis C virus [7] was determined as 33.5 µM; in the data set on Hepatitis C virus [9], 30.4 µM. The CC50 at 48 h in [10] came out at 30.5 µM.
For the compound `Cc1ccc(N2CCN(C(=O)NC(=N)Nc3ccc(Cl)cc3)CC2)cc1.Cl`, the Activity result in [1] is given as “Non-toxic”. Moreover, the result in the data set on Hepatitis C virus [2] was inactive.
In the case of `CC(C)(C)OC(=O)NC(=N)NC(=O)NCc1ccccc1`, the “Ratio EC50” value in the data set with Hepatitis C virus [11] is given as 3. The “Ratio CC50/EC50” value is reported as 7.99 in data set [4] and 4.25 in [5]. Also, in data set [6], the CC50 at 1 h stood at 92.9 µM. In addition, the EC50 was 6.17 µM in the data set on Hepatitis C virus [7] and 21.9 µM with Hepatitis C virus [9]. Besides, the Activity entry in [8] is “Non-toxic”. For the same compound, the CC50 at 48 h in [10] stood at 49.3 µM.
Turning to `Cl.N=C(NCc1ccccc1)NC(=O)N1CCCC1`, the Activity result in [1] was “Non-toxic”. Further, the result in the data set with Hepatitis C virus [2] was inactive.
With `N=C(N)NC(=N)N1CCOCC1`, the inhibition entry with Hepatitis C virus [9] (Hepacivirus hominis, genotype 2a JFH-1, Huh-7) was “inactive”.
For `Cl.N=C(NC(=O)N1CCN(c2ccccc2)CC1)Nc1ccccc1`, the “Ratio CC50/EC50” value in data set [4] was >3.4; in data set [5], 0.5. Moreover, the CC50 at 1 h in data set [6] is > 30 µM. The EC50 with Hepatitis C virus [7] worked out at 8.7 µM; in the data set with Hepatitis C virus [9], 59.5 µM. In data set [10], the CC50 at 48 h is > 30 µM. Moreover, the outcome in the data set on Hepatitis C virus [2] was inactive.
Take `Cl.N=C(N)NC(=O)NCCCCN`: in data set [1], the Activity result is given as “Non-toxic”.
Take `Cl.N=C(N)NC(=O)N1CCOCC1`: the Activity entry in data set [1] is listed as “Non-toxic”.
As for `Cl.N=C(NCc1ccccc1)NC(=O)N1CCN(c2ccc(Cl)cc2)CC1`, the figures for the “Ratio CC50/EC50” value in [4] and in data set [5] were 14.4 and 1.4, respectively. Besides, in data set [6], the CC50 at 1 h is 64 µM. Further, the inhibition at 10 µM with Hepatitis C virus [12] was ≤ 50%. For the same compound, the EC50 with Hepatitis C virus [7] was found to be 2.41 µM; in the data set on Hepatitis C virus [9], 45.7 µM. In addition, the Activity entry in [8] was “Non-toxic”. Also, in [10], the CC50 at 48 h came out at 34.7 µM. In addition, the outcome with Hepatitis C virus [2] was inactive.
Consider `N=C(N)NC(=N)N1CCN(c2ccccc2)CC1`, for which the inhibition entry in the data set on Hepatitis C virus [3] was “inactive”.
For `Cl.N=C(NCc1ccccc1)NC(=O)N1CCN(c2ccc(F)cc2)CC1`, in data set [1], the Activity entry is “Non-toxic”. In addition, the result with Hepatitis C virus [2] was inactive.
As to `CC(C)(C)OC(=O)/N=C(\NCc1ccccc1)NC(=O)N1CCOCC1`, in [1], the Activity entry was “Non-toxic”.
Consider `N=C(N)NC(=N)NCc1ccccc1`, for which, in the data set with Hepatitis C virus [3], the inhibition result was “inactive”.
Turning to `CCOC(=O)CNC(=O)NC(=N)N.Cl`, in data set [1], the Activity entry was “Non-toxic”.
In the case of `Cl.N=C(NC(=O)N1CCN(c2ccc(Cl)cc2)CC1)Nc1ccccc1`, in data set [1], the Activity result is on record as “Non-toxic”. In addition, the result in the data set on Hepatitis C virus [2] was inactive.
Take `Cl.N=C(NC(=O)N1CCN(c2ccccc2)CC1)Nc1ccc(Cl)cc1`: the “Ratio CC50/EC50” value in data set [4] is given as 30.4; in data set [5], >2.68. Besides, the CC50 at 1 h in data set [6] was > 30 µM. Also, in the data set with Hepatitis C virus [12], the inhibition at 10 µM is ≤ 50%. Besides, the figures for the EC50 in the data set with Hepatitis C virus [7] and with Hepatitis C virus [9] were 1.3 µM and 11.2 µM, respectively. Also, the Activity result in [8] is recorded as “Non-toxic”. For the same compound, the CC50 at 48 h in data set [10] was 39.7 µM. In addition, the outcome with Hepatitis C virus [2] was inactive.
On to `Cl.N=C(NC(=O)N1CCN(c2ccc([N+](=O)[O-])cc2)CC1)Nc1ccccc1`, for which, in data set [1], the Activity entry is given as “Non-toxic”. Further, the result with Hepatitis C virus [2] was inactive.
Consider `Cl.N=C(NC(=O)N1CCN(c2cc(Cl)cc(Cl)c2)CC1)Nc1ccc(Cl)cc1`, for which the “Ratio CC50/EC50” value amounted to 20.2 in data set [4] and 6.06 in data set [5]. In [6], the CC50 at 1 h came out at 63 µM. Further, the EC50 was 1.69 µM with Hepatitis C virus [7] and 10.4 µM with Hepatitis C virus [9]. Moreover, the Activity entry in [8] was “Non-toxic”. The CC50 at 48 h in data set [10] stood at 34.2 µM. Moreover, in the data set with Hepatitis C virus [2], the result was inactive.
Take `Cc1ccc(N2CCN(C(=O)NC(=N)Nc3ccccc3)CC2)cc1.Cl`: the “Ratio CC50/EC50” value in data set [4] was determined as 4.4; in data set [5], 2.82. In addition, in [6], the CC50 at 1 h was 26.4 µM. The EC50 was 4.7 µM with Hepatitis C virus [7] and 9.35 µM with Hepatitis C virus [9]. Also, the CC50 at 48 h in data set [10] stood at 21 µM. Also, the outcome with Hepatitis C virus [2] was inactive.
On to `N=C(N)NC(=N)Nc1ccc(F)cc1`, for which the inhibition result with Hepatitis C virus [3] was “inactive”.
For the compound `Cl.N=C(N)NC(=O)NCc1ccccc1`, the “Ratio CC50/EC50” value in [4] was 9.19; in [5], 6.23. The CC50 at 1 h in data set [6] came out at 324 µM. For the same compound, the EC50 stood at 35.3 µM in the data set with Hepatitis C virus [7] and 52 µM in the data set with Hepatitis C virus [9]. The CC50 at 48 h in data set [10] was determined as 325 µM.
`CCOC(=O)CNC(=O)NC(=N)NC(=O)OC(C)(C)C`: the Activity entry in data set [1] was “Non-toxic”.
